Source: patent publication US20040019430A1, “Methods and systems for analyzing complex biological systems” (priority 2001, published 2004)
Entries after “also recorded” stand apart in the source; their conditions may differ.

Experiments:
Arabidopsis thaliana [1] = assay: MOA1 phenotypic profiling of Arabidopsis sprayed with unknown and commercial herbicides; assay type: in vivo; details: for Hierarchical cluster analysis of the eleven phenotypic characteristics / phenotype: Ward's method
Arabidopsis thaliana [2] = assay: MOA1 biochemical (metabolite) profiling by LC-MS and GC-MS; details: for Stress-related (commonly regulated) metabolites: MOA1, 20 min and 1 hr after spraying
[3] = system: Saccharomyces cerevisiae wild type strain BY4743; assay: AF1 metabolite analysis (GC-MS, LC-MS) of yeast cells treated with antifungal drugs; assay type: cell-based; design: Fold Change: scale not given here
[4] = system: Saccharomyces cerevisiae wild type strain BY4743; assay: AF1 combined gene expression and metabolite data mapped to KEGG reactions and pathways; assay type: cell-based; details: yeast AF1
Excerpt: In AF1, two different technologies were utilized: gene expression analysis (for examination of mRNA expression) and metabolite analysis. […] As noted previously, existing metabolic databases may be helpful in practicing the methods and systems of the present invention, but many databases include limitations that make their use in data analysis and pathway mapping less than straightforward. […] This caveat to KEGG makes it difficult to pinpoint the correct pathway when attempting to link a gene to a specific pathway. […] The pathway score indicates how meaningful the mapping is, or how likely it is to be correctly indicative of the pathway involved in the perturbation under examination. The method provides a pathway score based on perturbation levels of genes and/or compounds and the information content of each gene and/or compound in the pathway, i.e., a pathway score indicates the extent to which other pathways are mapped to a gene/compound. For example, imagine that two genes are perturbed in a particular experiment. One gene maps to only one pathway, giving a high degree of probability that the perturbed pathway is the one identified in the mapping. The second gene maps to three pathways. In the later example, there is only one-third the probability that the pathway identified in the mapping is the one perturbed. The present invention provides a method for calculating the pathway scores, so that more weight is given to a score of a gene or compound that maps to only one pathway than to a score of a gene or compound that maps to multiple pathways. […] Where n=the total number of genes in the pathway; ipath—count=the number of pathways containing a gene; and j=the number of genes in the pathway that are perturbed. Another factor to be considered when weighting a pathway score is the degree of perturbation. Degree of perturbation can be calculated, for example, based on a number of standard deviations from a norm, and included in an equation such as the one shown above, so that not only the number of pathways is taken into account, but also accounts for the amount of gene transcript or compound present as compared to a control. Compounds were also linked to pathways using the KEGG database. KEGG links 676 compounds measured in AF1 to a total of 92 pathways. Of the 676 compounds under consideration, 77 were detected in the AF1 samples. […] The multiple mapping feature of KEGG makes it difficult to pinpoint the correct pathway when trying to link a compound to a specific pathway. […] A pathway score calculation is applied to the compounds to account for both information content (number of pathways a compound maps to) and perturbation level. The data were then combined to determine the number of reactions showing an enzyme and at least one compound perturbed, and to determine the number of pathways having at least one enzyme and one perturbed compound perturbed. The results of the analysis are represented in Tables 16 and 17, and were difficult to interpret, illustrating that the ability to draw conclusions from compound mapping to pathways is limited when absent additional data.

[5] = system: Arabidopsis thaliana plants; assay: SOA1 phenotypic analysis of herbicide-treated Arabidopsis plants (MIC, Tmic, leaf traits); assay type: in vivo; details: for Characteristic symptoms (phenotype): herbicide treated Arabidopsis; for Dev. leafCurling / Dev. leafTwisting / Dev. matureLeafAnthocyanins / Dev. matureLeafChlorosis / Dev. matureLeafNecrosis / Dev. newLeafAnthocyanins / Dev. newLeafChlorosis / Dev. newLeafNecrosis / Dev. pointedLeaves: numeric value standardized to mock treated; for Dev. leafWidth: numeric value standardized to the average response for the mock treated tissues; for Symptom Class: three-week-old Arabidopsis plants treated with herbicide, phenotype classes of FIG. 12
Magnaporthe grisea = assay type: cell-based
[6] = 250 μg/ml (partially inhibitory)

SMILES: CCSC(=O)N(CC(C)C)CC(C)C [Butylate]
- Herbicidal phenotype (Arabidopsis thaliana [1]): neither showed a strong herbicidal phenotype
- Stress-related (commonly regulated) metabolites (Arabidopsis thaliana [2]): neither butylate nor chlorpropham treatment resulted in many changes

SMILES: CC(=O)N1CCN(c2ccc(OCC3COC(Cn4ccnc4)(c4ccc(Cl)cc4Cl)O3)cc2)CC1 (stereo not shown) [Ketoconazole]
- # Compounds perturbed by treatment ([3]; P < 0.1, yeast, 2x MIC, two hours): 15
- # Reactions (title: Number Of Pathways Having at Least One Enzyme and One Compound Perturbed) [4]: 24

SMILES: CC(C)C1(C)N=C(c2ncccc2C(=O)O)NC1=O (stereo not shown) [Imazapyr]
- Dev. tMic [5]: 2
- Characteristic symptoms (phenotype) [5]: anthocyanin accumulation in the older leaves accompanied by chlorosis of the newly emerging leaves
- Dev. leafCurling [5]: 0
- Dev. leafTwisting [5]: 0
- Dev. matureLeafAnthocyanins [5]: 2
- Dev. matureLeafChlorosis [5]: 0
- Dev. matureLeafNecrosis [5]: 0
- Dev. newLeafAnthocyanins [5]: 0
- Dev. newLeafChlorosis [5]: 2
- Dev. newLeafNecrosis [5]: 0
- Dev. pointedLeaves [5]: 0
- Dev. leafWidth [5]: 0
- Stress-related (commonly regulated) metabolites (Arabidopsis thaliana [2]): Only a few, if any, stress-related metabolites were observed

SMILES: OC(Cn1cncn1)(Cn1cncn1)c1ccc(F)cc1F [Fluconazole]
- # Reactions (title: Number Of Pathways Having at Least One Enzyme and One Compound Perturbed) [4]: 15

SMILES: CP(=O)(O)CCC(N)C(=O)O (stereo not shown) [Glufosinate]
- Dev. tMic [5]: 1
- Characteristic symptoms (phenotype) [5]: Chlorosis and leaf curling
- Dev. leafCurling [5]: 2
- Dev. leafTwisting [5]: 1
- Dev. matureLeafAnthocyanins [5]: 0
- Dev. matureLeafChlorosis [5]: 3
- Dev. matureLeafNecrosis [5]: 0
- Dev. newLeafAnthocyanins [5]: 0
- Dev. newLeafChlorosis [5]: 3
- Dev. newLeafNecrosis [5]: 0
- Dev. pointedLeaves [5]: 1
- Dev. leafWidth [5]: −2
- Symptom Class [5]: 3
- Hierarchical cluster analysis of the eleven phenotypic characteristics / phenotype (Arabidopsis thaliana [1]): clustered with amitrole
- Nitrogen sources M. grisea can utilize in presence of compound (Magnaporthe grisea): only able to utilize glutamine and glutamate as nitrogen sources
- Stress-related (commonly regulated) metabolites (Arabidopsis thaliana [2]): Only a few, if any, stress-related metabolites were observed

SMILES: Nc1nc[nH]n1 [Amitrole]
- Dev. tMic [5]: 2
- Characteristic symptoms (phenotype) [5]: leaf bleaching and leaf enlargement
- Dev. leafCurling [5]: −1
- Dev. leafTwisting [5]: 0
- Dev. matureLeafAnthocyanins [5]: 0
- Dev. matureLeafChlorosis [5]: 3
- Dev. matureLeafNecrosis [5]: 0
- Dev. newLeafAnthocyanins [5]: 0
- Dev. newLeafChlorosis [5]: 4
- Dev. newLeafNecrosis [5]: 0
- Dev. pointedLeaves [5]: 0
- Dev. leafWidth [5]: 2
- Hierarchical cluster analysis of the eleven phenotypic characteristics / phenotype (Arabidopsis thaliana [1]): exhibited chlorosis and not true bleaching

SMILES: CC[C@@H]([C@H](C)O)n1ncn(-c2ccc(N3CCN(c4ccc(OC[C@@H]5CO[C@@](Cn6cncn6)(c6ccc(F)cc6F)C5)cc4)CC3)cc2)c1=O [Posaconazole]
- Fold Change ([3]; metabolite NacetylD-glucosamine, platform nLC): 0
- Fold Change ([3]; metabolite NacetylD-glucosamine, platform pLC): 0
- Fold Change ([3]; metabolite NacetylL-glutamate, platform pLC): 0
- Fold Change ([3]; metabolite NacetylL-ornithine, platform nLC): 0
- Fold Change ([3]; metabolite niacinamide, platform pLC): 0
- Fold Change ([3]; metabolite nopaline, platform pLC): 0
- Fold Change ([3]; metabolite ornithine3, platform GC): 0.041
- Fold Change ([3]; metabolite orotic acid, platform nLC): 0
- Fold Change ([3]; metabolite phenylpyruvic acid, platform nLC): 0
- Fold Change ([3]; metabolite phosphoenolpyruvate, platform nLC): 0
- Fold Change ([3]; metabolite phosphoenolpyruvate, platform pLC): 0
- Fold Change ([3]; metabolite pinitol, platform nLC): 0
- Fold Change ([3]; metabolite porphobilinogen, platform nLC): 0
- Fold Change ([3]; metabolite progesterone, platform pLC): 0
- Fold Change ([3]; metabolite retinoic acid, platform nLC): 0
- Fold Change ([3]; metabolite riboflavin, platform pLC): 0
- Fold Change ([3]; metabolite salicylic/HObenzoic, platform nLC): 0
- Fold Change ([3]; metabolite shikimic acid, platform nLC): 0
- Fold Change ([3]; metabolite sinapinic acid, platform nLC): 0
- Fold Change ([3]; metabolite sugar-phosphate, platform pLC): 0
- Fold Change ([3]; metabolite thiamine, platform pLC): 0
- Fold Change ([3]; metabolite thymine, platform nLC): 0
- Fold Change ([3]; metabolite thymine, platform pLC): 0
- Fold Change ([3]; metabolite tryptophan, platform pLC): 0
- Fold Change ([3]; metabolite uric acid, platform pLC): 0
- Fold Change ([3]; metabolite urocanic acid, platform nLC): 0
- Fold Change ([3]; metabolite urocanic acid, platform pLC): 0
- Fold Change ([3]; metabolite xanthosine (diH2O), platform pLC): 0
- Fold Change ([3]; metabolite xanthosine-DiH2O, platform nLC): 0
- Fold Change ([3]; metabolite zeatin, platform nLC): 0
- Fold Change ([3]; metabolite zeatin, platform pLC): 0
- # Reactions (title: Number Of Pathways Having at Least One Enzyme and One Compound Perturbed) [4]: 3

SMILES: O=C(O)CNCP(=O)(O)O [Glyphosate]
- Dev. tMic [5]: 2
- Characteristic symptoms (phenotype) [5]: anthocyanin accumulation in the older leaves accompanied by chlorosis of the newly emerging leaves
- Dev. leafCurling [5]: 0
- Dev. leafTwisting [5]: 0
- Dev. matureLeafAnthocyanins [5]: 3
- Dev. matureLeafChlorosis [5]: 1
- Dev. matureLeafNecrosis [5]: 3
- Dev. newLeafAnthocyanins [5]: 1
- Dev. newLeafChlorosis [5]: 2
- Dev. newLeafNecrosis [5]: 0
- Dev. pointedLeaves [5]: 1
- Dev. leafWidth [5]: 0
- Symptom Class [5]: 4
- Hierarchical cluster analysis of the eleven phenotypic characteristics / phenotype (Arabidopsis thaliana [1]): clustered with amitrole
- Growth of M. grisea with ammonium or glutamine provided (Magnaporthe grisea; [6]): Little growth defect
- Growth of M. grisea with nitrate, nitrite, or glutamate as the sole nitrogen source (Magnaporthe grisea; [6]): inhibited growth
- Tyrosine level (metabolite downstream from the SOA) (Arabidopsis thaliana [2]; after one hour): decreased relative to the control after one hour

SMILES: CS(=O)(=O)c1cc(C(F)(F)F)ccc1C(=O)c1cnoc1C1CC1 [Isoxaflutole]
- Alpha-tocopherol levels (Arabidopsis thaliana [2]; relative to control, early time points): not significantly changed relative to the control
- Tyrosine and phenylalanine levels (Arabidopsis thaliana [2]; relative to control, early time points, 1 hr): up-regulated relative to the control; also recorded: began to accumulate relative to the control after one hour

SMILES: CC(C)OC(=O)Nc1cccc(Cl)c1 [Chloropropham]
- Herbicidal phenotype (Arabidopsis thaliana [1]): neither showed a strong herbicidal phenotype
- Stress-related (commonly regulated) metabolites (Arabidopsis thaliana [2]): neither butylate nor chlorpropham treatment resulted in many changes
